Assay results taken from ChEMBL document CHEMBL1201862, “PubChem BioAssay data set” (2004).
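Grown in 96-well plates, cells were treated for 48 hours with each compound at five concentrations. Insufficient inhibition: endpoint recorded as highest concentration tested. GI50 is the concentration that inhibits growth by half.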 Active and inactive are the calls of the source. Rule as the data show it: active = GI50 up to about 1.1 µM and inactive = higher.

Tests used:
Test in all cases: NCI tumour cell line growth inhibition, 48 h
[1] = system: SK-MEL-28
[2] = system: IGROV-1
[3] = system: SF-539
[4] = system: SW-620
[5] = system: RPMI-8226
[6] = system: HOP-62
[7] = system: HCC 2998
[8] = system: EKVX
[9] = system: COLO 205
[10] = system: K562
[11] = system: HL-60
[12] = system: RXF 631
[13] = system: KM12
[14] = system: HCT-116
[15] = system: NCI-H522
[16] = system: HOP-92
[17] = system: OVCAR-8
[18] = system: HT-29
[19] = system: SN12C
[20] = system: DLD-1
[21] = system: M14
[22] = system: NCI-H23
[23] = system: NCI-H226
[24] = system: SF-295
[25] = system: XF498
[26] = system: CCRF-CEM
[27] = system: SF-268
[28] = system: OVCAR-3
[29] = system: Malme-3M
[30] = system: OVCAR-4
[31] = system: TK-10
[32] = system: SR
[33] = system: SK-OV-3
[34] = system: MOLT-4
[35] = system: SNB-19
[36] = system: M19-MEL
[37] = system: A549
[38] = system: A498
[39] = system: SNB-75
[40] = system: LXFL 529
[41] = system: DMS-114
[42] = system: DMS-273
[43] = system: UACC-257
[44] = system: UO-31
[45] = system: UACC-62
[46] = system: 786-0
[47] = system: CAKI-1
[48] = system: SK-MEL-2
[49] = system: OVCAR-5
[50] = system: LOX IMVI
[51] = system: NCI-H460
[52] = system: RXF 393
[53] = system: U-251
[54] = system: HOP-18
[55] = system: ACHN
[56] = system: SNB-78
[57] = system: KM-20L2
[58] = system: SK-MEL-5
[59] = system: HCT-15

Measured: GI50

Cc1cc2c3ccccc3n(C)c2c2c1C(=O)c1ccccc1C2=O
inactive: [1] 18.6 µM | [2] 19.4 µM | [3] > 100 µM | [4] 25 µM | [5] 6.3 µM | [6] 20.4 µM | [7] 18.3 µM | [8] 24.3 µM | [9] 21.1 µM | [10] 20.4 µM | [11] 7.82 µM | [12] 21.9 µM | [13] 28.2 µM | [14] 14.8 µM | [15] 16.7 µM | [16] 13.5 µM | [17] 19.2 µM | [18] 24.9 µM | [19] 19.2 µM | [20] 14.6 µM | [21] 19.1 µM | [22] 15.6 µM | [23] 10.8 µM | [24] 13.6 µM | [25] 15.9 µM | [26] 5.18 µM | [27] 25 µM | [28] 13.4 µM | [29] 18.2 µM | [30] 17.8 µM | [31] 32.5 µM | [32] 6.24 µM | [33] 22.2 µM | [34] 5.83 µM | [35] 33.5 µM | [36] 3.01 µM | [37] 21.3 µM | [38] 25.6 µM | [39] 29.2 µM | [40] 16.9 µM | [41] 17.1 µM | [42] 19.4 µM | [43] 20 µM | [44] 10.5 µM | [45] 20.8 µM | [46] 16.5 µM | [47] 21.9 µM | [48] 20 µM

CC(C)(C)C1(O)Cc2ccccc2C(=O)O1 (stereo unspecified)
inactive: [1] > 100 µM | [49] > 100 µM | [50] > 100 µM | [2] > 100 µM | [3] > 100 µM | [51] > 100 µM | [52] > 100 µM | [4] > 100 µM | [6] > 100 µM | [7] > 100 µM | [8] > 100 µM | [9] > 100 µM | [10] > 100 µM | [11] > 100 µM | [12] > 100 µM | [13] > 100 µM | [14] > 100 µM | [53] > 100 µM | [54] > 100 µM | [15] > 100 µM | [16] > 100 µM | [17] > 100 µM | [18] > 100 µM | [19] > 100 µM | [20] > 100 µM | [21] > 100 µM | [55] > 100 µM | [22] > 100 µM | [23] > 100 µM | [24] > 100 µM | [26] > 100 µM | [56] > 100 µM | [57] > 100 µM | [58] > 100 µM | [27] > 100 µM | [28] > 100 µM | [29] > 100 µM | [30] > 100 µM | [31] > 100 µM | [32] > 100 µM | [33] > 100 µM | [34] > 100 µM | [35] > 100 µM | [36] > 100 µM | [37] > 100 µM | [38] > 100 µM | [39] > 100 µM | [40] > 100 µM | [41] > 100 µM | [42] > 100 µM | [43] > 100 µM | [44] > 100 µM | [45] > 100 µM | [46] > 100 µM | [47] > 100 µM | [48] > 100 µM
> 100 µM: [59]

O=C(COc1ccc(Cl)cc1)N1N=C(c2ccc([N+](=O)[O-])o2)CC1(O)c1ccccc1 (stereo unspecified)
3.05 µM: [59]
inactive: [1] 12.2 µM | [49] 15.8 µM | [50] 10.8 µM | [2] 6.24 µM | [3] 13.1 µM | [51] 11.1 µM | [4] 4.71 µM | [5] 2.28 µM | [6] 20 µM | [7] 4.11 µM | [9] 3.52 µM | [10] 3.72 µM | [11] 1.77 µM | [12] 7.87 µM | [13] 6.58 µM | [14] 5.27 µM | [53] 4.94 µM | [15] 15.5 µM | [16] 20.2 µM | [17] 5.62 µM | [18] 4.81 µM | [19] 4.44 µM | [20] 4.66 µM | [21] 11.8 µM | [55] 6.03 µM | [22] 2.03 µM | [23] 28.2 µM | [24] 10.7 µM | [25] 10.5 µM | [56] 13.8 µM | [57] 12.3 µM | [27] 10.5 µM | [28] 3.77 µM | [29] 10.4 µM | [30] 7.11 µM | [31] 8.63 µM | [32] 2.59 µM | [33] 19.3 µM | [34] 3.42 µM | [35] 11.9 µM | [36] 2.44 µM | [37] 10 µM | [39] > 10 µM | [42] 5.28 µM | [43] 4.05 µM | [44] 11.4 µM | [45] 3.87 µM | [46] 7.62 µM | [47] 17.4 µM | [48] 7.24 µM
